Source: patent US20190054109A1, “An antiviral composition and a method for application thereof” (ALLA CHEM, LLC, priority 2017, published 2019)
Where two headings read alike, the source gives them in different places. Marks after values point to notes of the source that are not given here.

Columns and labels:
gT1b NS5B HCV = conditions: cited from earlier work; for EC50: from hcvdruginfo.ca
[1] = test system: Huh7 human hepatocellular carcinoma cell line; conditions: cited from earlier work
[2] = test system: six HCV genotypes (gT1-gT6); conditions: cited from earlier work
[3] = from Sofia et al. J. Med. Chem. 2010, cited from earlier work
[4] = from Sofia et al. J. Med. Chem. 2010, cited from earlier work; remark: listed apart in the source
[5] = from Sofia et al. J. Med. Chem. 2010, cited from earlier work; remark: listed apart in the source
physchem = conditions: simulated gi fluid
Method: (§1) Evaluation of stability in biological matrix for compositions comprising the prodrug of formula 1.1. Initial compositions comprising the prodrug of formula 1.1 (the tested compounds) were prepared with a concentration of 10 mM in DMSO. From said compositions, 100-fold working solutions were prepared with a concentration of 100 μM in a mixture of acetonitrile: water with a volumetric ratio of 1:1.
The tested composition comprising the prodrug of formula 1.1 in a final concentration of 1 μM was incubated in artificial gastric juice (0.2% NaCl in 0.7% v/v HCl) and artificial intestinal juice (0.05M KH2PO4, pH 6.75). The incubation was performed in a Vortemp56 shaking incubator at 37° C. with stirring at a rate of 300 rev/min. […] The samples were then centrifuged, and the supernatant (150 μl) was sampled for analysis […]. The incubation was performed in two replicates, with each sample measured twice.
Samples were analyzed using an HPLC-MS/MS technique developed for each tested prodrug, wherein the chromatographic system 1290 Infinity II (Agilent Technologies) was combined with the tandem mass spectrometer QTRAP5500 (AB Sciex). When developing conditions for mass-spectrometric detection, the solutions of tested compounds in a mixture of acetonitrile-water (1:1) with a concentration of 100 ng/ml were injected directly into the mass spectrometer using a syringe pump with electrospray ionization carried out in a positive ion mode. Scanning in a total ion current mode (MS1) allowed us to identify a molecular ion for each compound, and basic product ions were recorded in MS2 mode. Then, to attain maximum sensitivity, the MS/MS technique was optimized in MRM mode. In quantitative chromatogram processing, the most intensive MRM transition was used for the analyte and the internal standard. Separation was carried out by means of linear gradient elution chromatography on a YMC Triart C18 column (50×2 mm, 1.9 μm) in a mobile phase consisting of 0.1% formic acid in water and 0.1% formic acid in acetonitrile. Tolbutamide (Fluka) was used as the internal standard.
Half-life (T1/2) was found from the kinetics of tested prodrug elimination in an antiviral composition during incubation in a biological matrix. The computations were based on the values of chromatographic peak areas for compounds in test samples normalized to the internal standard signal. From linear dependence of log normalized areas of chromatographic peaks on time, the constant of elimination rate was calculated (k is linear section slope).

in vitro = conditions: human, plasma
Method: as §1
The incubation was performed in a Vortemp56 shaking incubator at 37° C. with stirring at a rate of 300 rev/min. […] The samples were then centrifuged, and the supernatant (150 μl) was sampled for analysis […]. The incubation was performed in two replicates, with each sample measured twice.
Samples were analyzed using an HPLC-MS/MS technique developed for each tested prodrug, wherein the chromatographic system 1290 Infinity II (Agilent Technologies) was combined with the tandem mass spectrometer QTRAP5500 (AB Sciex). […] Scanning in a total ion current mode (MS1) allowed us to identify a molecular ion for each compound, and basic product ions were recorded in MS2 mode. […] In quantitative chromatogram processing, the most intensive MRM transition was used for the analyte and the internal standard. […]

SMILES | EC90 (gT1b NS5B HCV; HCV genotype 1b (gT1b)) [nM] | EC50 (gT1b NS5B HCV; HCV genotype 1b (gT1b)) [nM] | EC90 (gT1b NS5B HCV; gT1b HCV, 10% FBS, from Sofia et al. J. Med. Chem. 2010) [nM] | EC50 (gT1b NS5B HCV; gT1b HCV, 10% FBS) [nM] | CC90 ([1]; 10% FBS, from Sofia et al. J. Med. Chem. 2010) [nM] | CC50 ([1]; Huh7, Table 2 marks the value as from Sofia et al.) [nM] | efficiency in clinical trials [2] | T1/2 SGF [3] [h] | T1/2 SGF ([3]; listed as Sovaldi ®) | T1/2 SIF [4] [h] | T1/2 SIF ([4]; listed as Sovaldi ®) | T1/2 Human plasma [5] [h] | T1/2 Human plasma ([5]; listed as Sovaldi ®) | half-life at 1 μM (physchem; T1/2 SGF, artificial gastric juice, 37° C.) [h] | half-life at 1 μM (physchem; pH 6.75) [h] | half-life at 1 μM (in vitro) [h]
CC(C)OC(=O)[C@H](C)N[P@](=O)(OC[C@H]1O[C@@H](n2ccc(=O)[nH]c2=O)[C@](C)(F)[C@@H]1O)Oc1ccccc1 [Sovaldi®, Sofosbuvir] | 590 | 45 to 170 | 520 | 45 to 170 | > 100000 | > 100000 | high efficiency | 12.7 to 15 | 22.0* h | > 24 | >24* h | > 24 | >24* h | – | – | –
C[C@H](N[P@@](=O)(OC[C@H]1O[C@@H](n2ccc(=O)[nH]c2=O)[C@](C)(F)[C@@H]1O)Oc1ccccc1)C(=O)OC1CCC1 [Prodrug 1.2, cyclobutyl (S)-2-((R)-(((2R,3R,4R,5R)-5-(2,4-dioxo-3,4-dihydropyrimidin-1(2H)-yl)-3-hydroxy-4-methyl-4-fluoro-tetrahydrofuran-2-yl)methoxy)-(phenoxy)-phosphorylamino)-propanoate] | – | – | – | – | – | – | – | – | – | – | – | – | – | 12.7 to 15 | > 24 | > 24
